“And” between values parts separate entries of the source, which are not always exact repeats. Identical values can stand only once. Like-named read-outs stand apart in the source and are kept apart here. Numbered stars: 1 amine (or outer) side, 2 acyl side, 3 side chain; on linkers, the order of the positions; unused ones are H or OH. Square brackets hold non-standard residues; d marks the D form. Peptide text beside a SMILES is read from it. * marks the point of attachment. ξ: configuration not given here. Gly(1-amidinopiperidin-4-yl) = N=C(N)N1CCC([C@H](N)C(=O)O)CC1; X1 = CC(C)c1oc([C@H](CO)N[*:1])nc1C(=O)[*:2]; Pro(3R-Ph) = O=C(O)[C@H]1NCC[C@@H]1c1ccccc1; Met(O) = CS(=O)CC[C@H](N)C(=O)O; Tic = O=C(O)[C@@H]1Cc2ccccc2CN1; Cha = N[C@@H](CC1CCCCC1)C(=O)O; NMe(benzyl) = CN(Cc1ccccc1)*; ξDisc = O=C(O)C1NCc2ccccc21; Nle = CCCC[C@H](N)C(=O)O; X2 = OCCOCCN(Cc1ccccc1)*; X3 = OCCOCCN*
Columns and labels:
[1] = Stability of compounds in human blood plasma; type: in vitro ADME
Method in brief: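 Compounds at 5 μM final in rat, mouse or human plasma, incubated at 37 °C and sampled at 0, 6 and 24 h. Proteins precipitated with acetonitrile and the supernatant dried and reconstituted in 50% acetonitrile/0.1% TFA. PBS controls run for unstable compounds.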

[2] = tested on: T-cell proliferation, DR14-LN; conditions: for Immunsupressive assays DR14-LN (Max) % Inhibition: maximal inhibition; for IC50: read-out: Immunsupressive assays DR14-LN (IC50)
[3] = molecular target: Cathepsin B1 (EC 3.4.22.1 from bovine spleen) (Bos taurus, UniProt P07688); conditions: Cathepsin B, 4 h
[4] = molecular target: DR1 (DRA1*0101 DRB1*0101) (Homo sapiens, UniProt P01903+P01911, A100R/D57E/F55L/F60I/F76Y/I96L/L162R/M171V/P40L/Q125E/R42F/V115G/Y59C); assay: Competitive binding to MHC-II protein DR1
Method in brief: (§1)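 Each MHC-II allele incubated with compound 16 hours at room temperature in duplicate; controls lacked compound, or both compound and MHC-II. Complexes captured 2 h at 4 °C, bound biotinylated peptide detected via europium-streptavidin and DELFIA enhancement, time-resolved fluorescence read at ex 340/em 613 (615) nm.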

[5] = molecular target: T1, LG2 (DR1: DRA1*0101 DRB1*0101) cells (Homo sapiens, UniProt P01903+P01911, A100R/D57E/F55L/F60I/F76Y/I96L/L162R/M171V/P40L/Q125E/R42F/V115G/Y59C); assay: Competitive binding to MHC II proteins expressed on LG2 cells; type: cell-based; conditions: for IC50: LG2 (0101)
T1 construct: MHC II Proteins Expressed on PRIESS and LG2 Cells; endogenous in cells; host or cells: LG2 cells
Protocol: For use in the binding assay the cells were re-suspended in medium containing 1% FCS at a density of 2.5×10^6 cells/ml.
The assay was performed in sterile 96 well polystyrene microtiter plates. A 10 fold dilution series of compounds (16 nM-1615 μM) in 1% FCS was prepared from 5 or 10 mM compound stock solutions in 10% DMSO/water. 50 μl of each compound dilution were added in duplicates to 50 μl of a 16 μM solution of indicator peptide in 1% FCS. Cell binding was initiated by adding 100 μl of 2.5×10^6 cells/ml 1% FCS to each well. Controls were included containing the DMSO concentration present in the solution with the highest compound concentration. The cells were incubated at 37° C., 6% CO2. After 4 hours the cells were washed with 200 μl PBS and lysed in 200 μl lysis buffer (50 mM sodium phosphate, 150 mM sodium chloride, 1% (w/v) NP-40, 25 mM iodoacetamide, 1 mM PMSF, 3.1% protease inhibitor cocktail: 0.32 g/l of Chymostatin, Antipain, Pepstatin A, Soybean trypsin inhibitor and Leupeptin each, pH 7.5) for 10 min.
After washing with PBS, 190 μl of cell lysate were transferred to the appropriate wells of the capture plate and incubated for 2 h at 4° C. The wells were washed six times with 200 μl/well cooled (4 to 8° C.) of 1×DELFIA wash (Wallac-ADL-GmbH, Freiburg), incubated with 100 μl of cooled Europium-streptavidin conjugate (Wallac-ADL-GmbH, Freiburg; diluted 1/1000 with DELFIA assay buffer) for 30 minutes at 4° C., again washed six times with cooled 1×DELFIA wash and, finally, incubated with 200 μl cooled DELFIA enhancement solution (Wallac-ADL-GmbH, Freiburg) for one hour at room temperature before reading the time-resolved europium fluorescence at λex Eu^3+: 340 nm and λem Eu^3+: 613 (615) nm (Wallac Victor^2 1420 Multilabel Counter, Wallac-ADL-GmbH, Freiburg).

[6] = molecular target: DR4Dw14 (DRA1*0101 DRB1*0404) (Homo sapiens, UniProt P01903+P01911, A100R/A169T/F76Y/I96L/K127E/L162R/M171V/N62H/P40V/Q125Y/R42H/S133A/S149N/S66Y/V209L/W38E); assay: Competitive binding to MHC-II protein DR4Dw14; conditions: 0404; read-out: Protein binding IC50 (nM) 0404
Method in brief: as §1

[7] = Protein binding IC50 (nM) 0101, 0101
[8] = Cell binding IC50 (uM) LG2 (0101)

Structure (SMILES) | Stability (Arbitrary units) Human 6 h [1] | Stability (Arbitrary units) Human 24 h [1] | Immunsupressive assays DR14-LN (Max) % Inhibition [2] | IC50 [2] | Stability (Arbitrary units) Cath B 4 h [3] | IC50 [4, 7] | IC50 [5, 8] | IC50 [6] | binding to MHC class II protein expressed on the surface of LG2 cells ([5]; compared to the Arg-containing equivalent) | Stability (Arbitrary units) Human 6 h ([1]; human plasma, 6 h) | IC50 ([4]; read-out: Protein binding IC50 (nM) 0101, 0101) | IC50 ([5]; read-out: Cell binding IC50 (uM) LG2 (0101)) | Stability (Arbitrary units) Human 24 h ([1]; human plasma, 24 h)
CCCC[C@H](NC(=O)[C@@H]1Cc2ccccc2CN1C(=O)[C@H](CCCNC(=N)N)NC(=O)[C@H](CC1CCCCC1)NC(C)=O)C(=O)N(C)Cc1ccccc1 [Compound P71, Ac-Cha-Arg-Tic-Nle-N(Me)Bn] (Ac-[Cha]R[Tic][Nle]-{NMe(benzyl)}) | 107 Arbitrary units | 90 Arbitrary units | 98% and 96% | 15 µM | 97 Arbitrary units | – | – | – | – | – | – | – | –
CCCC[C@H](NC(=O)C1c2ccccc2CN1C(=O)[C@@H](NC(=O)[C@H](CC1CCCCC1)NC(C)=O)C1CCN(C(=N)N)CC1)C(=O)N(C)Cc1ccccc1 (single isomer, unassigned) [Compound P78-1] | 93 Arbitrary units | 107 Arbitrary units | – | – | 100 Arbitrary units | 550 nM | 4.6 µM | 1400 nM | – | – | – | – | –
CSCC[C@H](NC(=O)C1c2ccccc2CN1C(=O)[C@@H](NC(=O)[C@H](CC1CCCCC1)NC(C)=O)C1CCN(C(=N)N)CC1)C(=O)N1CC[C@H](c2ccccc2)[C@H]1C(=O)N[C@@H](CO)c1nc(C(=O)N(C)C)c(C(C)C)o1 (stereo partly drawn) [Compound P41-1, Ac-Cha-Gpg-Disc-Met-βPhPro-[S(oxaz)L]-NMe2] (Ac-[Cha][Gly(1-amidinopiperidin-4-yl)][ξDisc]M[Pro(3R-Ph)][X1]-NMe2) | 59 Arbitrary units | 115 Arbitrary units | 98% | 25 µM | 104 Arbitrary units | 160 nM | 3.8 µM | 110 nM | – | – | – | – | –
CSCC[C@H](NC(=O)[C@@H]1Cc2ccccc2CN1C(=O)[C@@H](NC(=O)[C@H](CC1CCCCC1)NC(C)=O)C1CCN(C(=N)N)CC1)C(=O)N1CC[C@H](c2ccccc2)[C@H]1C(=O)N[C@@H](CO)c1nc(C(=O)N(C)C)c(C(C)C)o1 [Compound P60, Ac-Cha-Gpg-Tic-Met-βPhPro-[S(oxaz)L]-NMe2] (Ac-[Cha][Gly(1-amidinopiperidin-4-yl)][Tic]M[Pro(3R-Ph)][X1]-NMe2) | – | 120 Arbitrary units | 98% | 41 µM | 88 Arbitrary units and 98 Arbitrary units | 250 nM | 1.5 µM | 190 nM | – | – | – | – | –
CC(=O)N[C@@H](CC1CCCCC1)C(=O)N[C@H](C(=O)N1Cc2ccccc2C[C@H]1C(=O)N[C@@H](CC[S+](C)[O-])C(=O)N1CC[C@H](c2ccccc2)[C@H]1C(=O)N[C@@H](CO)c1nc(C(=O)N(C)C)c(C(C)C)o1)C1CCN(C(=N)N)CC1 (stereo partly drawn) [Compound P47, Ac-Cha-Gpg-Tic-Met(O)-βPhPro-[S(oxaz)L]-NMe2] (Ac-[Cha][Gly(1-amidinopiperidin-4-yl)][Tic][Met(O)][Pro(3R-Ph)][X1]-NMe2) | 126 Arbitrary units | 140 Arbitrary units | – | – | 100 Arbitrary units | 330 nM | 4.6 µM | 580 nM | Improved binding | – | – | – | –
CCCC[C@H](NC(=O)[C@@H]1Cc2ccccc2CN1C(=O)[C@@H](NC(=O)[C@H](CC1CCCCC1)NC(C)=O)C1CCN(C(=N)N)CC1)C(=O)N(CCOCCO)Cc1ccccc1 [Compound P101, Ac-Cha-Gpg-Tic-Nle-N(Bn)CH2CH2OCH2CH2OH] (Ac-[Cha][Gly(1-amidinopiperidin-4-yl)][Tic][Nle]-X2) | – | 107 Arbitrary units | 100% | 46 µM | 100 Arbitrary units | 500 nM | – | 650 nM | – | 106 Arbitrary units | – | – | –
CCCC[C@H](NC(=O)[C@@H]1Cc2ccccc2CN1C(=O)[C@@H](NC(=O)[C@H](CC1CCCCC1)NC(C)=O)C1CCN(C(=N)N)CC1)C(=O)NCCOCCO [Compound P70, Ac-Cha-Gpg-Tic-Nle-N(H)CH2CH2OCH2CH2OH] (Ac-[Cha][Gly(1-amidinopiperidin-4-yl)][Tic][Nle]-X3) | 116 Arbitrary units | 90 Arbitrary units | – | – | 110 Arbitrary units | 90 nM | 5.7 µM | 290 nM | – | – | – | – | –
CCCC[C@H](NC(=O)C1c2ccccc2CN1C(=O)[C@@H](NC(=O)[C@H](CC1CCCCC1)NC(C)=O)C1CCN(C(=N)N)CC1)C(=O)N(C)Cc1ccccc1 (single isomer, unassigned) [Compound P76-1, Ac-Cha-Gpg-Disc-Nle-N(Me)Bn] | 93 Arbitrary units | 107 Arbitrary units | – | – | 100 Arbitrary units | – | – | 1400 nM | – | – | 550 nM | 4.6 µM | –
CSCC[C@H](NC(=O)[C@@H]1Cc2ccccc2CN1C(=O)[C@H](CCCNC(=N)N)NC(=O)[C@H](CC1CCCCC1)NC(C)=O)C(N)=O [Compound P1, Ac-Cha-Arg-Tic-Met-NH2] (Ac-[Cha]R[Tic]M-NH2) | 94 Arbitrary units | – | – | – | 87 Arbitrary units | 260 nM | 8.8 µM and 6.8 µM | 2300 nM | – | – | – | – | –
CSCC[C@H](NC(=O)[C@@H]1Cc2ccccc2CN1C(=O)[C@@H](NC(=O)[C@H](CC1CCCCC1)NC(C)=O)C1CCN(C(=N)N)CC1)C(=O)N(CCOCCO)Cc1ccccc1 [Compound P102, Ac-Cha-Gpg-Tic-Met-N(Bn)CH2CH2OCH2CH2OH] (Ac-[Cha][Gly(1-amidinopiperidin-4-yl)][Tic]M-X2) | 110 Arbitrary units | – | 100% | 73 µM | 116 Arbitrary units | 580 nM | – | 2100 nM | – | – | – | – | 116 Arbitrary units
CSCC[C@H](NC(=O)C1c2ccccc2CN1C(=O)[C@@H](NC(=O)[C@H](CC1CCCCC1)NC(C)=O)C1CCN(C(=N)N)CC1)C(N)=O (stereo partly drawn) [Compound P66-1, Ac-Cha-Gpg-Disc-Met-NH2] (Ac-[Cha][Gly(1-amidinopiperidin-4-yl)][ξDisc]M-NH2) | 103 Arbitrary units | 87 Arbitrary units | – | – | 102 Arbitrary units | 290 nM | 6 µM | 590 nM | – | – | – | – | –
CSCC[C@H](NC(=O)C1c2ccccc2CN1C(=O)[C@H](CCCNC(=N)N)NC(=O)[C@H](CC1CCCCC1)NC(C)=O)C(N)=O (stereo partly drawn) [Compound P12-1, Ac-Cha-Arg-Disc-Met-NH2] (Ac-[Cha]R[ξDisc]M-NH2) | 75 Arbitrary units | 0 Arbitrary units | – | – | 96 Arbitrary units | 430 nM | 9.6 µM | 860 nM | – | – | – | – | –

Source: US7629318B2, “Immunosuppressant compounds, methods and uses related thereto” (priority 2002, dated 2009)
